Values of other authors in US8410056B2, “Pro-oxidant anti-cancer compounds” (priority 2006, dated 2013).

How the values were obtained:
[1] = test system: LNCaP, PC-3; details: Shiau et al, 2006; cited from earlier work
[2] = test system: MDA-MB-435; details: cited from earlier work
[3] = test system: B16(F10); details: B16(F10); He et al, 1997; cited from earlier work
[4] = test system: MCF7; details: cited from earlier work
[5] = test system: neoplastic + SA mammary epithelial cells; details: cited from earlier work

Row | SMILES | IC50 [1] | IC50 [2] | IC50 [3] | IC50 [4] | IC50 [5]
1 | Cc1c(C)c2c(c(C)c1OC(=O)CCC(=O)O)CCC(C)(C)O2 [Compound 46] | > 100 µM |  |  |  | 
2 | CC(C)=CCC/C(C)=C/CC/C(C)=C/CC[C@]1(C)CCc2c(C)c(O)c(C)c(C)c2O1 [Compound 53, α-tocotrienol] |  | 210 µM | 110 µM | 14 µM | 
3 | CC(C)=CCC/C(C)=C/CC/C(C)=C/CC[C@]1(C)CCc2cc(O)c(C)c(C)c2O1 [Compound 56, γ-tocotrienol] |  |  | 20 µM |  | 4 µM
